Consider 3 molecules from patent publication US6743822B2, “Reduction of hair growth” (The Gillette Company, priority 2001, dated 2004).

SMILES strings stand for the structures. “And” between values parts separate entries of the source, which are not always exact repeats. Equal values may be shown once. “Also recorded” adds a separate entry of the source.

Assay [1] concerns flank organs (hair growth) of male intact Golden Syrian hamsters. In words: Golden Syrian Hamster assay (flank organ hair mass). It is filed as in vivo. As to conditions: dose 0.3%, topical; for Hair Mass in mg (drug treated): vehicle of Example 2, thirteen applications; for Percent inhibition (hair mass): vehicle of Example 2, versus vehicle treated flank organ. From the text:
Male intact Golden Syrian hamsters are considered acceptable models for human beard hair growth in that they display oval shaped flank organs, one on each side, each about 8 mm. in major diameter. These organs produce fine light colored hair typical of the animal pelage found on the body. In response to androgens the flank organs produce dark coarse hair similar to male human beard hair. To evaluate the effectiveness of a composition, the flank organs of each of a group of hamsters are depilated by applying a thioglycolate-based chemical depilatory (Surgex) and/or shaved. To one organ of each animal 10 μl of vehicle alone once a day is applied, while to the other organ of each animal an equal amount of vehicle containing substantially optically pure L-DFMO, substantially optically pure D-DFMO, racemic DFMO, or non-racemic DFMO including a preponderance of L-DFMO. After thirteen applications (one application per day for five days a week), the flank organs are shaved and the amount of recovered hair (hair mass) from each is weighed. For certain experiments, where indicated, the treatment period was for less than 13 applications. The reduced treatment period allowed for determination of onset in activity. Percent-reduction of hair growth is calculated by subtracting the hair mass (mg) value of the test compound treated side from the hair mass value of the vehicle treated side; the delta value obtained is then divided by the hair mass value of the vehicle treated side, and the resultant number is multiplied by 100. Visual evaluations comparing hair regrowth between the drug treated and the vehicle control site were made generally on day-8, day-15 and on day-19. These observations provide an identification of onset in activity (and thus efficacy). The above-described assay will be referred to herein as the “Golden Syrian Hamster” assay The efficacy of DFMO-containing compositions containing greater than 90% L-DFMO (“L-DFMO” for purposes of the below assays), racemic DFMO (“D,L-DFMO”), and greater than 90% D-DFMO (or “D-DFMO” for purposes of the below assays) was determined using the Golden Syrian Hamster assay. The L-DFMO produced a substantially greater hair mass reduction than the D-DFMO or D,L-DFMO (Table 1). The average inhibition at the 0.3% dose for the L-, D- and D,L-DFMO was 43±6%, 19±11% and 25±9%, respectively.

For assay [2], the system named is flank organ hair regrowth of Golden Syrian hamsters. In words: Golden Syrian Hamster visual efficacy assay. It is filed as in vivo. The settings on record: dose 2%; for Number of animals demonstrating maximal efficacy (observation score of +3) after full three weeks of treatment / Percent of animals demonstrating maximal efficacy (observation score of +3) after full three weeks of treatment: vehicle of Example 2; for Number of animals demonstrating efficacy (score of +1 or greater) after two weeks of treatment / Percent of animals demonstrating efficacy (score of +1 or greater) after two weeks of treatment: vehicle of Example 2, blinded visual score. From the text:
Male intact Golden Syrian hamsters are considered acceptable models for human beard hair growth in that they display oval shaped flank organs, one on each side, each about 8 mm. in major diameter. These organs produce fine light colored hair typical of the animal pelage found on the body. In response to androgens the flank organs produce dark coarse hair similar to male human beard hair. To evaluate the effectiveness of a composition, the flank organs of each of a group of hamsters are depilated by applying a thioglycolate-based chemical depilatory (Surgex) and/or shaved. To one organ of each animal 10 μl of vehicle alone once a day is applied, while to the other organ of each animal an equal amount of vehicle containing substantially optically pure L-DFMO, substantially optically pure D-DFMO, racemic DFMO, or non-racemic DFMO including a preponderance of L-DFMO. After thirteen applications (one application per day for five days a week), the flank organs are shaved and the amount of recovered hair (hair mass) from each is weighed. For certain experiments, where indicated, the treatment period was for less than 13 applications. The reduced treatment period allowed for determination of onset in activity. Percent-reduction of hair growth is calculated by subtracting the hair mass (mg) value of the test compound treated side from the hair mass value of the vehicle treated side; the delta value obtained is then divided by the hair mass value of the vehicle treated side, and the resultant number is multiplied by 100. Visual evaluations comparing hair regrowth between the drug treated and the vehicle control site were made generally on day-8, day-15 and on day-19. These observations provide an identification of onset in activity (and thus efficacy). The assay in a ‘blinded’ study included visual observations comparing the regrowth of hair on the DFMO treated flank organ with the vehicle treated flank organ during the course of treatment. Scores were assigned from 0 to +3. 0, no difference; +1, DFMO treated shorter than vehicle treated indicating efficacy; +2, DFMO treated much shorter than vehicle treated; +3, DFMO treated nearly bald indicating maximal efficacy. […] This assay will be referred to herein as the “Golden Syrian Hamster visual efficacy” assay.

Assay [3] concerns flank organs (hair growth) of Golden Syrian hamsters. Briefly: Twice a Week Golden Syrian Hamster assay. It counts as in vivo. As to conditions: dose 1%, 2×/wk, vehicle of Example 2. From the text: Male intact Golden Syrian hamsters are considered acceptable models for human beard hair growth in that they display oval shaped flank organs, one on each side, each about 8 mm. in major diameter. These organs produce fine light colored hair typical of the animal pelage found on the body. In response to androgens the flank organs produce dark coarse hair similar to male human beard hair. To evaluate the effectiveness of a composition, the flank organs of each of a group of hamsters are depilated by applying a thioglycolate-based chemical depilatory (Surgex) and/or shaved. To one organ of each animal 10 μl of vehicle alone once a day is applied, while to the other organ of each animal an equal amount of vehicle containing substantially optically pure L-DFMO, substantially optically pure D-DFMO, racemic DFMO, or non-racemic DFMO including a preponderance of L-DFMO. After thirteen applications (one application per day for five days a week), the flank organs are shaved and the amount of recovered hair (hair mass) from each is weighed. For certain experiments, where indicated, the treatment period was for less than 13 applications. The reduced treatment period allowed for determination of onset in activity. Percent-reduction of hair growth is calculated by subtracting the hair mass (mg) value of the test compound treated side from the hair mass value of the vehicle treated side; the delta value obtained is then divided by the hair mass value of the vehicle treated side, and the resultant number is multiplied by 100. Visual evaluations comparing hair regrowth between the drug treated and the vehicle control site were made generally on day-8, day-15 and on day-19. These observations provide an identification of onset in activity (and thus efficacy). The Golden Syrian Hamster assay was modified so that the animals received a reduced treatment frequency with DFMO, namely twice per week instead of five times a week.

For assay [4], the system named is Hamster flank organ hair follicles. In words: Golden Syrian Hamster hair follicle spatial mass assay (image analysis). It counts as in vivo. On the procedure:
(§1) Hamster flank organs were treated topically with D,L-DFMO or L-DFMO with the contra-lateral side treated with the carrier vehicle without DFMO. Animals were sacrificed at the indicated time-point (4 days or 7 days) and back skins containing the flank organ were removed for analysis. Glycerin was applied to the underside of the dorsal skin of the hamster flank organ regions. Flank organ hair follicle mass and density were assessed, by imaging the region with a digital camera, and analysis of the images was performed with Ultimage/Pro (version 2.5) software by […]. This technique permitted the quantification of hair follicle mass based on particle area and number, and hair follicle density based on particle number.

Assay [5] shares this test system. In words: Golden Syrian Hamster hair follicle density assay (image analysis). It counts as in vivo. As to conditions: 7 days, dose 0.5%, vehicle of Example 2. On the procedure:
as §1

For assay [6], the system named is Human hair follicles in culture (facial skin). Briefly: Human Hair Follicle Growth assay. The settings on record: 0.5 mM, seven days in culture. It is filed as cell-based. The method, then: Hair follicles were isolated from human facial (obtained from patients who underwent face lift surgery) skin samples using fine forceps under a dissecting microscope and grown in tissue culture Williams E medium—supplemented with insulin (10 μg/ml), glutamine (2 mM), hydrocortisone ([…]) and antibiotics/antimycotics (pen/strep). Hair lengths were determined on day 0, and day 7. Human hair follicles in culture were treated with 0.5 mM concentration of L-DFMO, D-DFMO, D,L-DFMO. Controls were cultured in Williams E tissue culture medium without DFMO. The increase in hair fiber length was determined over seven days. […] Only L-DFMO produced statistically significant reduction in hair growth (p=0.003) in this time period. […] The “P” values, as determined by paired test analysis, were 0.97, 0.78 and 0.003 for the D,L-DFMO, D-DFMO and L-DFMO, respectively.

Where [7] appears, read: 4 Days, dose 1%, vehicle of Example 2.
The mark [8] stands for this setting: 7 Days, dose 0.5%, vehicle of Example 2 (Table 5).
[9] abbreviates: 7 days, dose 0.5%, vehicle of Example 2.

In general, inhibition refers to how much of the control response was suppressed.

Turning to `NCCC[C@](N)(C(=O)O)C(F)F` (racemic) [D,L-DFMO, α-Difluoromethylornithine], in assay [1], the “Hair Mass in mg (drug treated)” value came out at 1.53 ± 0.19 mg and the “Percent inhibition (hair mass)” value was 25±9%. In assay [2], the “Number of animals demonstrating maximal efficacy (observation score of +3) after full three weeks of treatment” value (from here on “Number … after full three weeks of treatment”) was 1 out of 8, the “Percent of animals demonstrating maximal efficacy (observation score of +3) after full three weeks of treatment” value is 13%, the “Number of animals demonstrating efficacy (score of +1 or greater) after two weeks of treatment” value (“Number of animals demonstrating efficacy” for short) is given as 3 out of 8 and the “Percent of animals demonstrating efficacy (score of +1 or greater) after two weeks of treatment” value (“Percent … after two weeks of treatment” for short) was 38%. The “Percent … after two weeks of treatment” value in assay [2] (listed as D, L-DFMO) amounted to 38%. Further, in assay [2] (listed as racemic DFMO), the “Percent of animals demonstrating maximal efficacy (observation score of +3) after full three weeks of treatment” value stood at 13%. In assay [3], the “Hair Mass in mg (drug treated)” value stood at 1.74 ± 0.18 mg. Besides, in assay [4] (setting [7]), the “Hair follicle mass as determined by image analysis: particle area (×10^6), Treated” value (“Hair follicle mass as determined” for short) is on record as 4.89 ± 0.9 ×10^6; the “Inhibition % of hair follicle mass” value was 20% and 20 ± 9%. Also, the “Inhibition % of hair follicle mass” value in assay [4] (setting [8]) was 15% and 15 ± 13%. For the same molecule, the “Hair follicle mass as determined” value in assay [4] (setting [9]) was 2.71 ± .71 ×10^6. In assay [5], the “% Inhibition of Hair Follicle Density” value was “no effect; also recorded: No Inhibition”. The inhibition at 500 µM in assay [6] (Homo sapiens, 168 h, read-out: hair follicle growth inhibition (increase in hair fiber length, as compared to controls)) is 1 ± 12%.
In the case of `NCCC[C@](N)(C(=O)O)C(F)F` [L-DFMO, L-α-difluoromethylornithine], the “Hair Mass in mg (drug treated)” value is recorded as 1.06 ± 0.14 mg in assay [1] and 1.83 ± 0.38 mg in assay [3]. For the same molecule, in assay [1], the “Percent inhibition (hair mass)” value is reported as 43±6%. For the same molecule, the “Number … after full three weeks of treatment” value in assay [2] is 5 out of 8. The “Number of animals demonstrating efficacy” value in assay [2] is on record as 7 out of 8. In addition, the “hair follicle mass reduction, fold greater than by D,L-DFMO” value is on record as roughly 4 fold in assay [4] (0.5% dose, 7 days (Table 5)) and 2 fold in assay [4] (1% dose, 4 days). Further, in assay [4] (0.5% dose, 7 days, another assay (Table 6)), the “increase in efficacy (hair follicle spatial mass), fold versus D,L-DFMO” value was roughly 4 fold. The “Hair follicle mass as determined” value in assay [4] (setting [7]) is given as 4.23 ± 1.1 ×10^6; in assay [4] (setting [9]) it was 2.22 ± .94 ×10^6. Moreover, the “Inhibition % of hair follicle mass” value in assay [4] (setting [7]) is 43% and 43 ± 9%; in assay [4] (setting [8]) it was 58% and 58 ± 11%. The “% Inhibition of Hair Follicle Mass” value in assay [4] (7 days, dose 0.5%, another assay (Table 6)) was 41% and 41 ± 15%. In addition, the “% Inhibition of Hair Follicle Density” value in assay [5] is 45% and 45 ± 5%. For the same molecule, in assay [6], the “hair follicle growth inhibition (increase in hair fiber length, as compared to controls)” value came out at 36±12%.
For the molecule `NCCC[C@@](N)(C(=O)O)C(F)F` [D-DFMO], in assay [1], the “Hair Mass in mg (drug treated)” value was 1.39 ± 0.12 mg and the “Percent inhibition (hair mass)” value was 19±11%. Besides, in assay [2], the “Number … after full three weeks of treatment” value is 0 out of 8, the “Number of animals demonstrating efficacy” value is given as 2 out of 8 and the “Percent … after two weeks of treatment” value is 25%. Besides, the “Hair Mass in mg (drug treated)” value in assay [3] came to 1.80 ± 0.18 mg. Moreover, the “hair follicle growth inhibition (increase in hair fiber length, as compared to controls)” value in assay [6] is listed as 4±13%.
